Measured values from patent US20190185518A9, “WARHEAD-CONTAINING PEPTIDOMIMETIC MACROCYCLES AS MODULATORS OF BFL-1” (AILERON Therapeutics, Inc., priority 2017, published 2019).
Positions of bridges follow the written chain, without caps; N, C: chain ends. Non-standard residues stand in square brackets, D forms with d. Residues, ends and D or L forms follow the SMILES beside them. Phe(4-tBu) = CC(C)(C)c1ccc(C[C@H](N)C(=O)O)cc1; Phe(4-F) = N[C@@H](Cc1ccc(F)cc1)C(=O)O; R8 = C=CCCCCCC[C@@](C)(N)C(=O)O; Cha = N[C@@H](CC1CCCCC1)C(=O)O; αMeL = CC(C)C[C@](C)(N)C(=O)O; hLeu = CC(C)CC[C@H](N)C(=O)O; S5 = C=CCCC[C@](C)(N)C(=O)O; Aib = CC(C)(N)C(=O)O

Legend:
Bcl-2 = Bcl-2 (Homo sapiens, UniProt P10415); test: Ki determination for Bcl-2 (BCL-2 family binding spectrum); conditions: read-out: Ki BCL-2
Sequence of Bcl-2 (P10415 whole entry, species assumed): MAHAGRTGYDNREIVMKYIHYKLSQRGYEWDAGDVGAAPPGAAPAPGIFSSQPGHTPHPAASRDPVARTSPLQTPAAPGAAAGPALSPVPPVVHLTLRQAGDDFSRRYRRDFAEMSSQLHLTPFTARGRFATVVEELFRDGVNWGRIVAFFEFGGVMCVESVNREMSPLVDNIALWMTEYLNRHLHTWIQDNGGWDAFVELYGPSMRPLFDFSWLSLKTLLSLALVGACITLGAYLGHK
Description: (§1) To assess the binding and affinity of compounds that antagonize the interaction between a peptide and an acceptor protein, a fluorescence polarization assay (FPA) utilizing a fluoresceinated peptidomimetic macrocycle derived from a peptidomimetic precursor sequence is used, for example. The FPA technique measures the molecular orientation and mobility using polarized light and fluorescent tracer. […] A compound that antagonizes the interaction between the fluoresceinated peptidomimetic macrocycle and an acceptor protein will be detected in a competitive binding FPA experiment.
(§2) For example, putative antagonist compounds (1 nM to 1 mM) and a fluoresceinated peptidomimetic macrocycle (25 nM) are incubated with the acceptor protein (50 nM) in binding buffer (140 mM NaCl, 50 mM Tris-HCL, pH 7.4) for 30 minutes at room temperature. Antagonist binding activity is measured, for example, by fluorescence polarization on a luminescence spectrophotometer (e.g. Perkin-Elmer LS50B). Kd values may be determined by nonlinear regression analysis using, for example, Graphpad Prism software (GraphPad Software, Inc., San Diego, Calif.).

Mcl-1 = Mcl-1 (Homo sapiens, UniProt Q07820); test: Ki determination for Mcl-1 (BCL-2 family binding spectrum); conditions: read-out: Ki MCL-1
Sequence of Mcl-1 (Q07820 whole entry, species assumed): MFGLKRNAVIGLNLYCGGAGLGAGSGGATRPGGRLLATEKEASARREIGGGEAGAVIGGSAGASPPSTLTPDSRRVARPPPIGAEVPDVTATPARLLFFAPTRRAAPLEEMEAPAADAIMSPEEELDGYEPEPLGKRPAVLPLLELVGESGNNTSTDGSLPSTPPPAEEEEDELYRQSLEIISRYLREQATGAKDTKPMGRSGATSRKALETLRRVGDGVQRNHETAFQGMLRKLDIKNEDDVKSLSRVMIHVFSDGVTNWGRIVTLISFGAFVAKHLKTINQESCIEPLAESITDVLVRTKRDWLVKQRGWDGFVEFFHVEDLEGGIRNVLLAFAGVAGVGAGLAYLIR
Description: as §1
Antagonist binding activity is measured, for example, by fluorescence polarization on a luminescence spectrophotometer (e.g. Perkin-Elmer LS50B). Kd values may be determined by nonlinear regression analysis using, for example, Graphpad Prism software (GraphPad Software, Inc., San Diego, Calif.).

Bcl-xL = Bcl-xL (Homo sapiens, UniProt Q07817); test: Ki determination for Bcl-xL (BCL-2 family binding spectrum); conditions: read-out: Ki BCL-XL
Sequence of Bcl-xL (Q07817 whole entry, species assumed): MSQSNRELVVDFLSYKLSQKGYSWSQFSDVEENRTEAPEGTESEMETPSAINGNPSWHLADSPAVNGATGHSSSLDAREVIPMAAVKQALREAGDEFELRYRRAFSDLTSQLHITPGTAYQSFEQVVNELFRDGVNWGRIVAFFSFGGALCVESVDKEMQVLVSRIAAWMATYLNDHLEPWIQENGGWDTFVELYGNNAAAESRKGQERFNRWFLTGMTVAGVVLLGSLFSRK
Description: as §1, §2

Row | Compound | Ki (Bcl-2) | Ki (Mcl-1) | Ki (Bcl-xL)
1 | CC[C@H](C)[C@H](NC(C)=O)C(=O)N[C@@H](Cc1c[nH]c2ccccc12)C(=O)N[C@H](C(=O)N[C@@H](C)C(=O)N[C@@H](CCC(N)=O)C(=O)N[C@@H](CCC(=O)O)C(=O)N[C@@H](CC(C)C)C(=O)N[C@@H](CCCNC(=N)N)C(=O)N[C@]1(C)CCCCCCC=CCCC[C@@](C)(C(=O)N[C@@H](Cc2ccc(O)cc2)C(=O)N[C@@H](Cc2ccc(O)cc2)C(=O)N[C@@H](C)C(=O)N[C@@H](CCCNC(=N)N)C(=O)N[C@@H](CCCNC(=N)N)C(N)=O)NC(=O)[C@H](CC(N)=O)NC(=O)[C@H](Cc2ccccc2)NC(=O)[C@H](CCC(=O)O)NC(=O)[C@H](CC(=O)O)NC(=O)CNC(=O)[C@H]([C@@H](C)CC)NC1=O)[C@@H](C)CC [compound 1629] | 23.5 nM |  | 
2 | CC[C@H](C)[C@H](NC(C)=O)C(=O)N[C@@H](Cc1c[nH]c2ccccc12)C(=O)N[C@@H](Cc1ccc(C(C)(C)C)cc1)C(=O)N[C@@H](C)C(=O)N[C@@H](CCC(N)=O)C(=O)N[C@@H](C)C(=O)N[C@@H](CC(C)C)C(=O)N[C@@H](CCCNC(=N)N)C(=O)N[C@]1(C)CCCCCCC=CCCC[C@@](C)(C(=O)N[C@@H](Cc2ccc(O)cc2)C(=O)N[C@@H](Cc2ccc(O)cc2)C(=O)N[C@@H](C)C(N)=O)NC(=O)[C@H](CC(N)=O)NC(=O)[C@H](Cc2ccccc2)NC(=O)[C@H](C)NC(=O)[C@H](CC(=O)O)NC(=O)CNC(=O)[C@H]([C@@H](C)CC)NC1=O [compound 1684] (Ac-IW[Phe(4-tBu)]AQALR[R8]IGDAFN[S5]YYA-NH2; staple 9-16) | > 1000 nM |  | 
3 | CC[C@H](C)[C@H](NC(C)=O)C(=O)N[C@@H](Cc1c[nH]c2ccccc12)C(=O)N[C@H](C(=O)N[C@@H](C)C(=O)N[C@@H](CCC(N)=O)C(=O)N[C@@H](C)C(=O)N[C@@H](CC1CCCCC1)C(=O)N[C@@H](CCCNC(=N)N)C(=O)N[C@]1(C)CCCCCCC=CCCC[C@@](C)(C(=O)N[C@@H](Cc2ccc(O)cc2)C(=O)N[C@@H](Cc2ccc(O)cc2)C(=O)N[C@@H](C)C(N)=O)NC(=O)[C@H](CC(N)=O)NC(=O)[C@H](Cc2ccccc2)NC(=O)[C@H](C)NC(=O)[C@H](CC(=O)O)NC(=O)CNC(=O)[C@H]([C@@H](C)CC)NC1=O)[C@@H](C)CC [compound 1687] (Ac-IWIAQA[Cha]R[R8]IGDAFN[S5]YYA-NH2; staple 9-16) | > 1000 nM |  | 
4 | CC[C@H](C)[C@H](NC(=O)[C@H](Cc1c[nH]c2ccccc12)NC(=O)[C@](C)(CC(C)C)NC(C)=O)C(=O)N[C@@H](C)C(=O)N[C@@H](CCC(N)=O)C(=O)N[C@@H](C)C(=O)N[C@@H](CC(C)C)C(=O)N[C@@H](CCCNC(=N)N)C(=O)N[C@]1(C)CCCCCCC=CCCC[C@@](C)(C(=O)N[C@@H](Cc2ccc(O)cc2)C(=O)N[C@@H](Cc2ccc(O)cc2)C(=O)N[C@@H](C)C(N)=O)NC(=O)[C@H](CC(N)=O)NC(=O)[C@H](Cc2ccccc2)NC(=O)[C@H](C)NC(=O)[C@H](CC(=O)O)NC(=O)CNC(=O)[C@H]([C@@H](C)CC)NC1=O [compound 1705] (Ac-[αMeL]WIAQALR[R8]IGDAFN[S5]YYA-NH2; staple 9-16) |  | 5.2 nM | 8.4 nM
5 | CC[C@H](C)[C@H](NC(C)=O)C(=O)N[C@@H](Cc1c[nH]c2ccccc12)C(=O)N[C@H](C(=O)N[C@@H](C)C(=O)N[C@@H](CCC(N)=O)C(=O)N[C@@H](C)C(=O)N[C@@H](CC(C)C)C(=O)N[C@@H](CCCNC(=N)N)C(=O)N[C@]1(C)CCCCCCC=CCCC[C@@](C)(C(=O)N[C@@H](Cc2ccc(O)cc2)C(=O)N[C@@H](Cc2ccc(O)cc2)C(=O)N[C@@H](C)C(N)=O)NC(=O)[C@H](CC(N)=O)NC(=O)[C@H](Cc2ccc(C(C)(C)C)cc2)NC(=O)[C@H](C)NC(=O)[C@H](CC(=O)O)NC(=O)CNC(=O)[C@H]([C@@H](C)CC)NC1=O)[C@@H](C)CC [compound 1745] (Ac-IWIAQALR[R8]IGDA[Phe(4-tBu)]N[S5]YYA-NH2; staple 9-16) |  | 21.2 nM | 154 nM
6 | CC[C@H](C)[C@H](NC(C)=O)C(=O)N[C@@H](Cc1c[nH]c2ccccc12)C(=O)N[C@H](C(=O)N[C@@H](C)C(=O)N[C@@H](C)C(=O)N[C@@H](C)C(=O)N[C@@H](CC(C)C)C(=O)N[C@@H](CCCNC(=N)N)C(=O)N[C@]1(C)CCCCCCC=CCCC[C@@](C)(C(=O)N[C@@H](Cc2ccc(O)cc2)C(=O)N[C@@H](Cc2ccc(O)cc2)C(=O)N[C@@H](C)C(N)=O)NC(=O)[C@H](CC(=O)O)NC(=O)[C@H](Cc2ccccc2)NC(=O)[C@H](C)NC(=O)[C@H](CC(=O)O)NC(=O)CNC(=O)[C@H]([C@@H](C)CC)NC1=O)[C@@H](C)CC [compound 1748] (Ac-IWIAAALR[R8]IGDAFD[S5]YYA-NH2; staple 9-16) |  |  | 25.9 nM
7 | CC[C@H](C)[C@H](NC(C)=O)C(=O)N[C@@H](Cc1c[nH]c2ccccc12)C(=O)N[C@H](C(=O)N[C@@H](C)C(=O)N[C@@H](C)C(=O)N[C@@H](C)C(=O)N[C@@H](CC(C)C)C(=O)N[C@@H](CCCNC(=N)N)C(=O)N[C@]1(C)CCCCCCC=CCCC[C@@](C)(C(=O)N[C@@H](Cc2ccc(O)cc2)C(=O)N[C@@H](Cc2ccc(O)cc2)C(=O)N[C@@H](C)C(N)=O)NC(=O)[C@H](Cc2c[nH]cn2)NC(=O)[C@H](Cc2ccccc2)NC(=O)[C@H](C)NC(=O)[C@H](CC(=O)O)NC(=O)CNC(=O)[C@H]([C@@H](C)CC)NC1=O)[C@@H](C)CC [compound 1752] (Ac-IWIAAALR[R8]IGDAFH[S5]YYA-NH2; staple 9-16) |  | 8 nM | 36.3 nM
8 | CC[C@H](C)[C@H](NC(C)=O)C(=O)N[C@@H](Cc1c[nH]c2ccccc12)C(=O)N[C@H](C(=O)N[C@@H](C)C(=O)N[C@@H](CCC(N)=O)C(=O)N[C@@H](C)C(=O)N[C@@H](CC(C)C)C(=O)N[C@@H](CCCNC(=N)N)C(=O)N[C@]1(C)CCCCCCC=CCCC[C@@](C)(C(=O)N[C@@H](Cc2ccc(O)cc2)C(=O)N[C@@H](CC(C)C)C(=O)N[C@@H](C)C(N)=O)NC(=O)[C@H](CC(N)=O)NC(=O)[C@H](Cc2ccccc2)NC(=O)[C@H](C)NC(=O)[C@H](CC(=O)O)NC(=O)CNC(=O)[C@H]([C@@H](C)CC)NC1=O)[C@@H](C)CC [compound 1755] (Ac-IWIAQALR[R8]IGDAFN[S5]YLA-NH2; staple 9-16) |  |  | 9 nM
9 | CC[C@H](C)[C@H](NC(C)=O)C(=O)N[C@@H](Cc1c[nH]c2ccccc12)C(=O)N[C@H](C(=O)N[C@@H](C)C(=O)N[C@@H](CCC(N)=O)C(=O)N[C@@H](C)C(=O)N[C@@H](CC(C)C)C(=O)N[C@@H](CCCNC(=N)N)C(=O)N[C@]1(C)CCCCCCC=CCCC[C@@](C)(C(=O)N[C@@H](Cc2ccc(O)cc2)C(=O)N[C@@H](Cc2ccc(O)cc2)C(=O)NC(C)(C)C(N)=O)NC(=O)[C@H](CC(N)=O)NC(=O)[C@H](Cc2ccccc2)NC(=O)[C@H](C)NC(=O)[C@H](CC(=O)O)NC(=O)CNC(=O)[C@H]([C@@H](C)CC)NC1=O)[C@@H](C)CC [compound 1770] (Ac-IWIAQALR[R8]IGDAFN[S5]YY[Aib]-NH2; staple 9-16) |  |  | > 1000 nM
10 | CC[C@H](C)[C@H](NC(C)=O)C(=O)N[C@@H](Cc1c[nH]c2ccccc12)C(=O)N[C@H](C(=O)N[C@@H](C)C(=O)N[C@@H](CCC(N)=O)C(=O)N[C@@H](C)C(=O)N[C@@H](CC(C)C)C(=O)N[C@@H](CCCNC(=N)N)C(=O)N[C@]1(C)CCCCCCC=CCCC[C@@](C)(C(=O)N[C@@H](Cc2ccc(O)cc2)C(=O)N[C@@H](Cc2ccc(F)cc2)C(=O)N[C@@H](C)C(N)=O)NC(=O)[C@H](CC(N)=O)NC(=O)[C@H](Cc2ccccc2)NC(=O)[C@H](C)NC(=O)[C@H](CC(=O)O)NC(=O)CNC(=O)[C@H](CCC(C)C)NC1=O)[C@@H](C)CC [compound 1777] (Ac-IWIAQALR[R8][hLeu]GDAFN[S5]Y[Phe(4-F)]A-NH2; staple 9-16) |  | 27 nM | 13 nM
11 | CC[C@H](C)[C@H](NC(=O)[C@H](Cc1c[nH]c2ccccc12)NC(=O)[C@H](C)NC(C)=O)C(=O)N[C@@H](C)C(=O)N[C@@H](C)C(=O)N[C@@H](C)C(=O)N[C@@H](CC(C)C)C(=O)N[C@@H](CCCNC(=N)N)C(=O)N[C@]1(C)CCCCCCC=CCCC[C@@](C)(C(=O)N[C@@H](C)C(=O)N[C@@H](Cc2ccc(F)cc2)C(=O)N[C@@H](C)C(N)=O)NC(=O)[C@H](CC(N)=O)NC(=O)[C@H](Cc2ccccc2)NC(=O)[C@H](C)NC(=O)[C@H](CC(=O)O)NC(=O)CNC(=O)[C@H](CCC(C)C)NC1=O [compound 1780] (Ac-AWIAAALR[R8][hLeu]GDAFN[S5]A[Phe(4-F)]A-NH2; staple 9-16) |  |  | 9 nM
12 | CC[C@H](C)[C@H](NC(C)=O)C(=O)N[C@@H](Cc1c[nH]c2ccccc12)C(=O)N[C@H](C(=O)N[C@@H](C)C(=O)N[C@@H](CCC(N)=O)C(=O)N[C@@H](C)C(=O)N[C@@H](C)C(=O)N[C@@H](CCCNC(=N)N)C(=O)N[C@]1(C)CCCCCCC=CCCC[C@@](C)(C(=O)N[C@@H](Cc2ccc(F)cc2)C(=O)N[C@@H](Cc2ccc(F)cc2)C(=O)N[C@@H](C)C(N)=O)NC(=O)[C@H](CC(N)=O)NC(=O)[C@H](Cc2ccccc2)NC(=O)[C@H](C)NC(=O)[C@H](CC(=O)O)NC(=O)CNC(=O)[C@H](CCC(C)C)NC1=O)[C@@H](C)CC [compound 1781] (Ac-IWIAQAAR[R8][hLeu]GDAFN[S5][Phe(4-F)][Phe(4-F)]A-NH2; staple 9-16) |  | > 1000 nM | > 1000 nM
